Reference: ChEMBL document CHEMBL1201862, “PubChem BioAssay data set” (2004)
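Tested at 5 concentrations; 48 h exposure; 96-well plates; endpoints linearly interpolated, else capped at highest concentration. GI50 = concentration required for 50% inhibition of growth.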 Active and inactive are the calls of the source. Cut-off read from the data, not from the text of the source: active = GI50 up to about 1.1 µM and inactive = higher.

Assays:
Test in all cases: NCI tumour cell line growth inhibition, 48 h
[1] = system: MOLT-4
[2] = system: SR
[3] = system: Hs-578T
[4] = system: A498
[5] = system: PC-3
[6] = system: NCI/ADR-RES
[7] = system: HCC 2998
[8] = system: T47D
[9] = system: MCF7
[10] = system: LOX IMVI
[11] = system: MDA-MB-435
[12] = system: DU-145
[13] = system: UO-31
[14] = system: MDA-N
[15] = system: NCI-H226
[16] = system: MDA-MB-231
[17] = system: EKVX
[18] = system: BT-549

Measured: GI50

ClCC1(CCl)COC1
inactive: [1] > 100 µM | [2] > 100 µM | [3] > 100 µM | [4] > 100 µM | [5] > 100 µM | [6] > 100 µM | [7] > 100 µM | [8] > 100 µM | [9] > 100 µM | [10] > 100 µM | [11] > 100 µM | [12] > 100 µM | [13] > 100 µM | [14] > 100 µM | [15] > 100 µM | [16] > 100 µM

Cc1ccc(Nc2nc3ccccc3nc2NS(=O)(=O)c2ccc(N)cc2)cc1
inactive: [1] 15.6 µM | [2] 20.7 µM | [3] 65.5 µM | [5] 41.8 µM | [6] 61.8 µM | [7] 3.64 µM | [8] 44 µM | [9] 45.2 µM | [10] 70.3 µM | [17] > 100 µM | [11] 30.7 µM | [12] 97.9 µM | [18] 5.35 µM | [13] 21.5 µM | [14] 41.4 µM | [15] 78.7 µM | [16] > 100 µM

CN(/N=C1\C(=O)Nc2ccccc21)c1ccccc1
inactive: [1] 45.2 µM | [2] 94 µM | [3] 29.6 µM | [4] > 100 µM | [5] 45.4 µM | [7] > 100 µM | [8] 34.7 µM | [9] 15.3 µM | [10] > 100 µM | [17] 29.8 µM | [11] > 100 µM | [12] > 100 µM | [13] 11.8 µM | [14] 40.6 µM | [15] > 100 µM | [16] 9.4 µM

c1ccc(CSC2(SCc3ccccc3)CCCC2)cc1
inactive: [1] > 10 µM | [2] > 10 µM | [3] 6.97 µM | [4] > 10 µM | [5] > 10 µM | [6] > 10 µM | [7] > 10 µM | [8] > 10 µM | [9] > 10 µM | [10] > 10 µM | [17] > 10 µM | [11] > 10 µM | [12] > 10 µM | [13] > 10 µM | [14] > 10 µM | [15] > 10 µM | [16] > 10 µM

COc1ccc(/C(C#N)=C/c2ccc(OC)c(OC)c2)cc1
inactive: [1] > 100 µM | [3] > 100 µM | [4] > 100 µM | [5] > 100 µM | [6] > 100 µM | [7] 59 µM | [8] 49.5 µM | [9] > 100 µM | [10] > 100 µM | [17] > 100 µM | [11] 83.4 µM | [12] > 100 µM | [13] > 100 µM | [14] > 100 µM | [15] > 100 µM | [16] > 100 µM

COc1cc(O)cc2oc(-c3ccc(O)cc3)cc(=O)c12
inactive: [1] > 100 µM | [2] 37.8 µM | [3] 57 µM | [4] 29.6 µM | [5] > 100 µM | [6] > 100 µM | [8] 50.4 µM | [9] > 100 µM | [10] > 100 µM | [17] > 100 µM | [11] > 100 µM | [12] > 100 µM | [18] 47.1 µM | [13] 55 µM | [14] > 100 µM | [16] > 100 µM
